Measured values: patent US5217961A, “Condensed quinoline system N-glycosides” (Mect Corporation, priority 1988, dated 1993)

Experiments:
[1] = tested on: P-388; assay: Effect on prolongation of life span in cancer implanted mouse (P-388); format: in vivo, CDF mouse; conditions: day 1 and day 5, P-388 i.p.; for responders at 25 mg/kg / responders at 50 mg/kg / responders at 200 mg/kg / responders at 400 mg/kg / cure (mice cured / mice in group) / responders at 12.5 mg/kg / responders at 100 mg/kg: 6 mice/group; for responders at 25 mg/kg / responders at 50 mg/kg / responders at 200 mg/kg / responders at 400 mg/kg / responders at 12.5 mg/kg / responders at 100 mg/kg: read-out: cure (mice cured / mice in group) (converted)
Protocol: Animal used: CDF mouse (6 mice/group)
Number of implanted cells: 10^6 cells/mouse
Day of administration: Day 1 and Day 5
Dosage: LD50 or 400 mg/kg/day at the maximum

[2] = tested on: KB cells; assay: Function for inhibiting multiplication of KB cell (in vitro test); format: cell-based, human; conditions: compound added day 1, cells counted day 4, effective when ED50 < 4 μg/ml, 4320 min
Protocol: KB cells, carcinomatous cell tumors, were transferred to in vitro floatation incubator systems, and added respectively with compounds of Examples 1 to 33. The results of cultivation added with these compounds were compared with the results of the control which was not added with any compound.
Cell used: KB Cell (Originating from human mouth epidermal cancer)
Culture medium: Eagles minimal essential medium (MEM) supplemented with 10% calf serum
Cultivation: 37° C. carbon dioxide gas incubator (5% CO2)
Day 0: KB cells were diluted in the culture medium to adjust the KB cell density to 2×10^4 /ml. Three ml of the cell suspension was inoculated in each of 60 mm plastic dishes. Two dishes per standard dosage were used.
Day 1: Test compound was added to the medium so that the final concentrations were set to 100, 30, 10, 3 and 1 μg/ml.
Day 4: Cells were scraped off from the dish using trypsin, and the cell number was countered using a Corter counter.
In generally accordance with the stipulations set forth by the National Cancer Institute (NCI) U.S.A., the concentration of compound necessary for exerting 50% growth inhibition (ED50) compared to the contral was determined.

[3] = J. Med. Chem. vol.17, 922 (1974); cited from earlier work
[4] = Mus musculus, P388, ip, 25 mg/kg
[5] = Mus musculus, P388, ip, 50 mg/kg
[6] = Mus musculus, P388, ip, 200 mg/kg
[7] = Mus musculus, P388, ip, 400 mg/kg
[8] = 12.5 mg/kg, effective when T/C >= 120%
[9] = 25 mg/kg, effective when T/C >= 120%
[10] = 50 mg/kg, effective when T/C >= 120%
[11] = Mus musculus, P388, ip, 50 mg/kg, effective when T/C >= 120%, read-out: Ratio of Life Prolongation (%) (T/C %)
[12] = Mus musculus, P388, ip, 12.5 mg/kg
[13] = Mus musculus, P388, ip, 100 mg/kg

COc1cc(NS(C)(=O)=O)ccc1Nc1c2cccc(C)c2nc2c1[nH]c1ccccc12 [Compound 9]
responders at 25 mg/kg [1, 4]: 16.7%
responders at 50 mg/kg [1, 5]: 66.7%

COc1cc(NS(C)(=O)=O)ccc1Nc1c2ccccc2nc2c1sc1cccc(C)c12 [Compound 33, 6-(4-methanesulfonamide-2-methoxyanilino)-1-methylbenzothieno[3,2-b]quinoline]
responders at 200 mg/kg [1, 6]: 16.7%
responders at 400 mg/kg [1, 7]: 16.7%

COc1cc(NS(C)(=O)=O)ccc1Nc1c2ccccc2nc2c1[nH]c1ccc(NC3OC(CO)C(O)C(O)C3O)cc12 (centres unmarked) [Compound 24, N-{4-[(7-(glycosyl-1-amino)-10H-indolo[3,2-b]quinoline-11-yl)amino]-3-methoxyphenyl} methanesulfonamide]
Conc. (ED50), concentration necessary for exerting 50% growth inhibition of KB cells [2]: < 0.3 µg/mL
cure (mice cured / mice in group) ([1]; 12.5 mg/kg): 2/6
Ratio of Life Prolongation (%) (T/C %) [1, 8]: 213%
Ratio of Life Prolongation (%) (T/C %) [1, 9]: 145%
Ratio of Life Prolongation (%) (T/C %) [1, 10]: 90%

COc1cc(O)ccc1Nc1c2ccccc2nc2c1[nH]c1ccccc12 [Compound 20]
responders at 25 mg/kg [1, 4]: 16.7%
response vs control in vivo at 50 mg/kg [1, 11]: 202%

COc1cc(NS(C)(=O)=O)ccc1Nc1c2ccccc2nc2c1[nH]c1ccc(F)cc12 [Compound 19, 2-fluoro-6-(4-methanesulfonamide-2-methoxyanilino)indolo[3,2-b]quinoline]
responders at 12.5 mg/kg [1, 12]: 50%
responders at 25 mg/kg [1, 4]: 33.3%
response vs control in vivo at 50 mg/kg [1, 11]: 93%

CN(C)c1cc(NS(C)(=O)=O)ccc1Nc1c2c(nc3ccccc13)-c1ccccc1C2 [Compound 6, 6-(4-methanesulfonamide-2-dimethylaminoanilino)-indeno[3,2-b]quinoline]
responders at 200 mg/kg [1, 6]: 33.3%

COc1cc(NS(C)(=O)=O)ccc1Nc1c2ccccc2nc2c1oc1cc(C)ccc12 [Compound 31, 6-(4-methanesulfonamide-2-methoxyanilino)-3-methylbenzofurano[3,2-b]quinoline]
responders at 200 mg/kg [1, 6]: 16.7%
responders at 400 mg/kg [1, 7]: 16.7%

COc1cc(NS(C)(=O)=O)ccc1Nc1c2ccccc2nc2c1[nH]c1ccc([N+](=O)[O-])cc12 [Compound 18, 6-(4-methanesulfonamide-2-methoxyanilino)-2-nitroindolo[3,2-b]quinoline]
responders at 12.5 mg/kg [1, 12]: 16.7%
response vs control in vivo at 12.5 mg/kg ([1]; Mus musculus, P388, ip, 12.5 mg/kg, effective when T/C >= 120%, read-out: Ratio of Life Prolongation (%) (T/C %)): 164%
response vs control in vivo at 25 mg/kg ([1]; Mus musculus, P388, ip, 25 mg/kg, effective when T/C >= 120%, read-out: Ratio of Life Prolongation (%) (T/C %)): 131%
response vs control in vivo at 50 mg/kg [1, 11]: 70%

COc1cc(NC(C)=O)ccc1Nc1c2ccccc2nc2c1[nH]c1ccccc12 [Compound 15]
responders at 100 mg/kg [1, 13]: 16.7%

COc1cc(NS(C)(=O)=O)ccc1Nc1c2ccccc2nc2c1[nH]c1ccc(NS(C)(=O)=O)cc12 [Compound 26, 2-methanesulfonamide-6-(4-methanesulfonamide-2-methoxyanilino)indolo[3,2-b]quinoline]
response vs control in vivo at 50 mg/kg [1, 11]: 143%

COc1cc(NS(C)(=O)=O)ccc1Nc1c2ccccc2nc2c1[nH]c1ccc(NC(C)=O)cc12 [Compound 25]
response vs control in vivo at 50 mg/kg [1, 11]: 184%

COc1cc(NS(C)(=O)=O)ccc1Nc1c2cccc(C)c2nc2c1oc1cccc(C)c12 [Compound 28, 6-(4-methanesulfonamide-2-methoxyanilino)-1,10-dimethylbenzofurano[3,2-b]quinoline]
response vs control in vivo at 200 mg/kg ([1]; Mus musculus, P388, ip, 200 mg/kg, effective when T/C >= 120%, read-out: Ratio of Life Prolongation (%) (T/C %)): 103%

COc1cc(NS(C)(=O)=O)ccc1Nc1c2c(nc3c(C)cccc13)-c1c(C)cccc1C2 [Compound 1, 6-4-(methanesulfonamide-2-methoxyanilino)-1,10-dimethylindeno[3,2-b]quinoline]
responders at 100 mg/kg [1, 13]: 16.7%
responders at 200 mg/kg [1, 6]: 16.7%

COc1cc(NS(C)(=O)=O)ccc1Nc1c2cccc(C)c2nc2c1oc1ccccc12 [Compound 27, 6-(4-methanesulfonamide-2-methoxyanilino)-10-methylbenzofurano[3,2-b]quinoline]
responders at 200 mg/kg [1, 6]: 16.7%
responders at 400 mg/kg [1, 7]: 33.3%
response vs control in vivo at 400 mg/kg ([1]; Mus musculus, P388, ip, 400 mg/kg, effective when T/C >= 120%, read-out: Ratio of Life Prolongation (%) (T/C %)): 310%

COc1cc(NS(C)(=O)=O)ccc1Nc1c2cccc(C)c2nc2c1oc1cc(C)ccc12 [Compound 29, 6-(4-methanesulfonamide-2-methoxyanilino)-3,10-dimethylbenzofurano[3,2-b]quinoline]
responders at 100 mg/kg [1, 13]: 16.7%
responders at 200 mg/kg [1, 6]: 16.7%

COc1cc(NS(C)(=O)=O)ccc1Nc1c2cccc(C)c2nc2c1[nH]c1cc(C)ccc12 [Compound 11, 6-(4-methanesulfonamide-2-methoxyanilino)-3,10-dimethylindolo[3,2-b]quinoline]
responders at 12.5 mg/kg [1, 12]: 16.7%
responders at 25 mg/kg [1, 4]: 33.3%
responders at 50 mg/kg [1, 5]: 16.7%

COc1cc(NS(C)(=O)=O)ccc1Nc1c2c(nc3c(C)cccc13)-c1ccccc1C2 [Compound 2, 6-4-(methanesulfonamide-2-methoxyanilio)-10-methylindeno[3,2-b]quinoline]
responders at 100 mg/kg [1, 13]: 16.7%

COC(=O)Nc1ccc(Nc2c3ccccc3nc3c2[nH]c2ccccc23)c(OC)c1 [Compound 14]
responders at 100 mg/kg [1, 13]: 16.7%

COc1cc(NS(C)(=O)=O)ccc1Nc1c2ccccc2nc2ccccc12 [Amsacrine, N-[4-(9-acridylamino)-3-methoxyphenyl)methanesulfonamide]
carcinostatic function [3]: highest carcinostatic function

COc1cc(NS(C)(=O)=O)ccc1Nc1c2cccc(C)c2nc2c1[nH]c1cccc(C)c12 [Compound 10, 6-(4-methanesulfonamide-2-methoxyanilino)-1,10-dimethylindolo[3,2-b]quinoline]
responders at 100 mg/kg [1, 13]: 16.7%

COc1cc(NS(C)(=O)=O)ccc1Nc1c2ccccc2nc2c1[nH]c1ccc(NC3OC(COC(C)=O)C(OC(C)=O)C(OC(C)=O)C3OC(C)=O)cc12 (centres unmarked) [Compound 23, N-{4-[(7-(2,3,4,6-tetra-O-acetylglycosyl-1-amino)-10H-indolo[3,2-b]quinoline-11-yl)amino]-3-methoxyphenyl} methanesulfonamide]
Conc. (ED50), concentration necessary for exerting 50% growth inhibition of KB cells [2]: < 0.3 µg/mL
cure (mice cured / mice in group) ([1]; 12.5 mg/kg): 2/6
Ratio of Life Prolongation (%) (T/C %) [1, 8]: 300%
cure (mice cured / mice in group) ([1]; 25 mg/kg): 1/6
Ratio of Life Prolongation (%) (T/C %) [1, 9]: 148%
Ratio of Life Prolongation (%) (T/C %) [1, 10]: 58%

6-(4-methanesulfonamide-anilino)-indeno[3,2-b]quinoline [Compound 5]
Conc. (ED50), concentration necessary for exerting 50% growth inhibition of KB cells [2]: < 0.3 µg/mL
Ratio of Life Prolongation (%) (T/C %) [1, 9]: 140%
Ratio of Life Prolongation (%) (T/C %) [1, 10]: 135%
Ratio of Life Prolongation (%) (T/C %) ([1]; 100 mg/kg, effective when T/C >= 120%): 163%
Ratio of Life Prolongation (%) (T/C %) ([1]; 200 mg/kg, effective when T/C >= 120%): 172%
Ratio of Life Prolongation (%) (T/C %) ([1]; 400 mg/kg, effective when T/C >= 120%): 165%

COc1cc(OC(C)=O)ccc1Nc1c2ccccc2nc2c1[nH]c1ccccc12 [Compound 21]
responders at 50 mg/kg [1, 5]: 16.7%
response vs control in vivo at 100 mg/kg ([1]; Mus musculus, P388, ip, 100 mg/kg, effective when T/C >= 120%, read-out: Ratio of Life Prolongation (%) (T/C %)): 212%

COc1cc(NS(C)(=O)=O)ccc1Nc1c2ccccc2nc2c1[nH]c1ccc(N)cc12 [Compound 22, 2-amino-6-(4-methanesulfonamide-2-methoxyanilino)indolo[3,2-b]quinoline]
responders at 50 mg/kg [1, 5]: 16.7%
response vs control in vivo at 50 mg/kg [1, 11]: 242%

COc1cc(NS(C)(=O)=O)ccc1Nc1c2ccccc2nc2c1[nH]c1ccc(Cl)cc12 [Compound 12]
responders at 25 mg/kg [1, 4]: 16.7%
responders at 50 mg/kg [1, 5]: 16.7%

COc1cc(NS(C)(=O)=O)ccc1Nc1c2ccccc2nc2c1[nH]c1cccc(C)c12 [Compound 16, 6-(4-methanesulfonamide-2-methoxyanilino)-1-mehtylindolo[3,2-b]quinoline]
responders at 12.5 mg/kg [1, 12]: 33.3%
responders at 25 mg/kg [1, 4]: 33.3%
